Measurements published in patent US20100015249A1, “Antitumor agent containing 6'-amidino-2'-naphthyl 4-guanidinobenzoate or salt thereof” (priority 2005, published 2010).

Key:
NF-κB [1] = assay: Gel shift assay of active NF-κB in nuclear extracts; format: cell-based, human
Protocol: The human pancreas cancer cell line MDAPanc-28 was treated with various concentrations of FUT to examine the effect on NF-κB activation. NF-κB is constantly activated in the MDAPanc-28 cell line. A gel shift assay with a κB probe was performed using the nuclear extracts from cells treated with various concentrations of FUT to detect NF-κB which was activated and translocated into the nucleus. More specifically, 10 μg of nuclear extracts were reacted with 1 μg of poly (dI-dC) (Pharmacia, Picataway, N.J.) in binding buffer (75 mM NaCl, 15 mM Tris-HCl, pH 7.5, 1.5 mM dithiothreitol, 25% glycerol and 20 mg/ml bovine serum albumin) for 30 minutes at 4° C. ^32P-labeled oligonucleotide probes (SEQ ID Nos: 1 to 4) were then added for reaction for 20 minutes at room temperature and electrophoresis was performed (4% polyacrylamide gel, 0.25×TBE; 22.5 mM Tris, 22.5 mM borate and 500 μM EDTA, pH 8.0). After drying at 80° C. for 1 hour, the gel was exposed to Kodak film (Eastman Kodak Co., Rochester, N.Y.) at −80° C. for detection. Oct-1 was used as a positive control.

[2] = test system: human pancreas cancer cell line MDAPanc-28; assay: Apoptosis ratio by flow cytometry (propidium iodide, FACScan); format: cell-based; details: MDAPanc-28, pretreatment with the agent 3 hours then gemcitabine 48 hours, compared with gemcitabine alone
Protocol: The present inventors next examined the effect of these agents on apoptosis induction in the human pancreas cancer cell line MDAPanc-28. […] Flow cytometry was used to confirm the occurrence of apoptosis. Cells were collected after treatments with the agents and fixed in 70% ethanol at −20° C. for 24 hours. After rinsing with PBS, cells were suspended in PBS containing 50 μg/ml of propium iodide, 0.1% Triton X-100, 0.1% sodium citrate and 1 μg/ml of DNase free RNase. The samples were incubated at room temperature for 30 minutes and the amount of DNA was measured by using FACScan.

MMP-2 = assay: Western blot of MMP-2 expression; format: cell-based, human; details: MDAPanc-28 cytoplasmic fraction, 0 or 80 μg/ml FUT
Protocol: Cytoplasmic fraction was prepared from the human pancreas cancer cell line […]-28 treated with either 0 μg/ml or 80 μg/ml of FUT. Western blot was performed for the obtained cytoplasmic proteins to examine MMP-2 and MMP-9 expression. More specifically, the experiment was performed by the method described in Example 2. Rabbit polyclonal anti-MMP-2 antibody, goat polyclonal anti-MMP-9 antibody and mouse anti-B-actin antibody (Santa Cruz Biotechnology, Inc.) were used for detection.

NF-κB [3] = assay: TNF-α-activated NF-κB after FUT treatment; format: cell-based, human; details: MDAPanc-28, FUT 80 μg/ml, TNF-α 5 ng/ml
Protocol: After the following treatment on the human pancreas cancer cell line […]-28, plasmatic compartment was prepared and Western blot was performed to examine the expression of phosphorylated FADD, caspase 8, NF-κB and IκBα. […] The same was true for IκBα expression (FIG. 7-c).

[4] = test system: human pancreas cancer cell line MDAPanc-28; assay: MTT assay of cell survival rate / living cell ratio; format: cell-based
Protocol: The present inventors examined the concomitant effect of FUT and TNF-α on apoptosis in cancer cells. After treatment with TNF-α for 24 hours, the human pancreas cancer cell line MDAPanc-28 was further cultured for 24 hours with various concentrations of FUT being added. Cells prepared were then subjected to an MTT assay according to the method generally known to calculate the cell survival rates. Also, DNA was extracted to perform a DNA fragmentation assay.
More specifically, with regard to the MTT assay, each well was seeded with 2000 cells per 100 μl of culture medium in a 96-well microtiterplate, followed by the above mentioned treatment. After plate centrifugation, each well received 5 mg/ml of MTT (Sigma) PBS solution instead of culture medium and was incubated for 4 hours at 37° C. After removing the supernatant, 100 μl of DMSO were added to dissolve the cells. The absorbance of the samples was measured at 570 nm by using a microplate reader. 8 wells were subjected to the same condition in this experiment. Two independent experiments were performed, and the average was calculated.
However, the agents are of different types with different mechanisms of action. Therefore, the present inventors examined the effect of each agent on the living cell ratio in the human pancreas cancer cell line MDAPanc-28 singularly. After being treated with each agent for 24 hours and 48 hours, the human pancreas cancer cell line MDAPanc-28 was subjected to a MTT assay. The MTT assay was performed by the method described in Example 9.

IκBα = assay: Western blot of IκBα / phosphorylated IκBα in cytoplasm extracts; format: cell-based, human
Protocol: The human pancreas cancer cell line MDAPanc-28 was treated with various concentrations of FUT to examine the effect on IκBα. Cytoplasm extracts were extracted from cells treated with various concentrations of FUT according to the method generally known and Western blot was performed to detect each protein. More specifically, each lane was loaded with 50 μg of protein to perform electrophoresis. The gel was then transferred to a PVDF membrane (Osmonics). After blocking with PBS containing 5% nonfat milk for 2 hours at room temperature, primary antibody (anti-IκBα antibody) diluted with PBS containing 0.1% nonfat milk was added for reaction at 4° C. overnight. After rinsing with PBS, the PVDF membrane was then reacted with secondary antibody solution diluted with PBS containing 0.1% nonfat milk for 2 hours at room temperature. Proteins were detected by using Lumi-Light Western Blotting Substrate.

FADD = assay: Western blot of FADD phosphorylation; format: cell-based, human
Protocol: The present inventors examined whether apoptosis signaling cascade is triggered with the elevation of TNFRI expression induced by FUT treatment, using caspase 8 as an indicator. Cytoplasmic fraction was prepared from the human pancreas cancer cell line MDAPanc-28 treated with various concentrations of FUT for 24 hours. Western blot was performed and subjected to the detection with anti-caspase 8 antibody (Santa Cruz Biotechnology) (FIG. 6-a). Western blot was performed to examine temporal changes in the expression of caspase 8, p-FADD, Bid and jBid under a constant concentration of FUT (80 μg/ml) at short intervals from 0 to 24 hours of treatment (FIGS. 6-b, 6-c and 6-d). Anti-FADD antibody was obtained from Santa Cruz Biotechnology and anti-Bid antibody was obtained from BD Pharmingen.
After the following treatment on the human pancreas cancer cell line MDAPanc-28, plasmatic compartment was prepared and Western blot was performed to examine the expression of phosphorylated FADD, caspase 8, NF-κB and IκBα. […] The same was true for IκBα expression (FIG. 7-c).

[5] = MDAPanc-28, time after addition of FUT up to 48 hours
[6] = MDAPanc-28, various concentrations of FUT

N=C(N)c1ccc2cc(OC(=O)c3ccc(N=C(N)N)cc3)ccc2c1 [FUT, 6-amidino-2-naphthyl p-guanidinobenzoate dimethanesulfonate]
NF-κB activation over time (NF-κB [1]; [5]): inhibited overtime up to 24 hours after addition of FUT and then was restored to a steady-state level at 48 hours
NF-κB activation (NF-κB [1]; [6]): inhibited NF-κB activation in a concentration-dependent manner
apoptosis induction in combination with gemcitabine [2]: further enhanced the effect on apoptosis induction
MMP-2 expression (MMP-2): inhibited by FUT in a concentration-dependent manner
TNF-α-activated NF-κB (NF-κB [3]): inhibits TNF-α-activated NF-κB
cell survival rate ([4]; MDAPanc-28, TNF-α 24 hours then various concentrations of FUT 24 hours, MTT, compared with control cells): significantly declined
speed of inhibitory effect on proliferation ([4]; MDAPanc-28, comparison of FUT with PS1145): more rapid inhibitory effect than PS1145
cell proliferation / living cell ratio ([4]; MDAPanc-28, single agent, 24 hours and 48 hours, MTT): inhibited in a FUT concentration-dependent manner
living cell ratio at 48 hours compared to 24 hours ([4]; MDAPanc-28, single agent, MTT): slightly increased at 48 hours compared to the ratio at 24 hours
level of phosphorylated IκBα in the cytoplasm (IκBα; MDAPanc-28, over time after adding FUT): declines overtime
level of IκBα in the cytoplasm over time (IκBα; [5]): increases along the progression of NF-κB inactivation up to 24 hours after addition of FUT and then is restored to a steady-state level after 48 hours
level of IκBα in the cytoplasm (IκBα; [6]): increased by FUT in a concentration-dependent manner
FADD phosphorylation with TNF-α stimulation (FADD; MDAPanc-28, FUT 80 μg/ml pretreatment then TNF-α 5 ng/ml 24 hours, compared to FUT alone): enhanced FADD phosphorylation
FADD phosphorylation (FADD; MDAPanc-28, FUT 80 μg/ml, 0 to 24 hours): promoted FADD phosphorylation overtime
